In ChEMBL document CHEMBL4020846 (J Med Chem, 2018):
pEC50: −log10 of the molar value. Calls of active or inactive are those of the source. No cut-off for these calls is given here.

Columns and labels:
[1] = molecular target: T1, Nucleotide-binding oligomerization domain-containing protein 2 (Homo sapiens, UniProt Q9HC29); experiment: Agonist activity at human NOD2 expressed in HEK-Blue cells assessed as induction of NF-kB transcriptional activity at 20 uM after 18 hrs by SEAP reporter gene assay; format: cell-based
[2] = Cytotoxicity against HEK-Blue cells over-expressing NOD2 assessed as residual metabolic activity at 20 uM after 18 hrs by CellTiter 96 aqueous one solution cell proliferation assay relative to control; format: ADME, cell-based; details: human, read-out: Activity
[3] = molecular target: T2, Nucleotide-binding oligomerization domain-containing protein 1 (Homo sapiens) (UniProt Q9Y239); experiment: Agonist activity at human NOD1 expressed in HEK-Blue cells assessed as induction of NF-kB transcriptional activity at 20 uM after 18 hrs by SEAP reporter gene assay; format: cell-based
T2 sequence (whole entry): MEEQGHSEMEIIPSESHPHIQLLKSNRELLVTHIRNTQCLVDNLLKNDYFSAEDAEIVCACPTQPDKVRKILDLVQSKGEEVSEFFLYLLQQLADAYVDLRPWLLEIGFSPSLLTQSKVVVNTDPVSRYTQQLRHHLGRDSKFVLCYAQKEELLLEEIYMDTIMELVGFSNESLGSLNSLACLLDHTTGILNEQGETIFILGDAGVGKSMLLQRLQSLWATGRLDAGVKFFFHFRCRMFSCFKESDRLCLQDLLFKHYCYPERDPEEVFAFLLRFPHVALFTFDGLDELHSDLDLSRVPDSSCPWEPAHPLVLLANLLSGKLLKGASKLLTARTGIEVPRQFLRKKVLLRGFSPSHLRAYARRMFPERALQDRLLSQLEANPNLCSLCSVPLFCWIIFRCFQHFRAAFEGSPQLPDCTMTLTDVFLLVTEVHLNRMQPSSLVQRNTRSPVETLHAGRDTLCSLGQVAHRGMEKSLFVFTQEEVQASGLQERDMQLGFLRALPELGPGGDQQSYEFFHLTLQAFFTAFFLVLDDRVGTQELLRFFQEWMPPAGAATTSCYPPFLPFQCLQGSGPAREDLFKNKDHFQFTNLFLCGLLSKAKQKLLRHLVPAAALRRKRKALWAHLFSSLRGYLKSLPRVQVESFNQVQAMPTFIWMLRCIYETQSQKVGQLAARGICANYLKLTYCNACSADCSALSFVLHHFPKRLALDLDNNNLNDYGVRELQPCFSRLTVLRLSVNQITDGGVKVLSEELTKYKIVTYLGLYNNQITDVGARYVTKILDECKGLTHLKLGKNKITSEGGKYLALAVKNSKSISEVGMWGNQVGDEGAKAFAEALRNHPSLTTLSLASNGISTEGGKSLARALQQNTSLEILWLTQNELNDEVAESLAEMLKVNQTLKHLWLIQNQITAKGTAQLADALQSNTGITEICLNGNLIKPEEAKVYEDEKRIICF

[4] = molecular target: T1, Nucleotide-binding oligomerization domain-containing protein 2; experiment: Agonist activity at human NOD2 expressed in HEK-Blue cells assessed as induction of NF-kB transcriptional activity after 18 hrs by SEAP reporter gene assay; format: cell-based
[5] = molecular target: T1, Nucleotide-binding oligomerization domain-containing protein 2; experiment: Agonist activity at human NOD2 expressed in HEK-Blue cells assessed as induction of NF-kB transcriptional activity at 2 uM after 18 hrs by SEAP reporter gene assay relative to control; format: cell-based
[6] = molecular target: T1, Nucleotide-binding oligomerization domain-containing protein 2; experiment: Agonist activity at human NOD2 expressed in HEK-Blue cells assessed as induction of NF-kB transcriptional activity at 2 uM after 18 hrs in presence of NOD2 antagonist GSK-669 by SEAP reporter gene assay; format: cell-based
[7] = Drug metabolism in HEK293 cells assessed as retention time at 2 uM by LC-MS analysis; format: ADME, cell-based; details: human, hek293, 2 µM
[8] = Stability in HEK293 cells at 2 uM up to 18 hrs by LC-MS analysis; format: ADME, cell-based; details: human, hek293, 18 h
[9] = Drug level in HEK293 cells cytosol at 2 uM after 18 hrs by LC-MS analysis; format: ADME, cell-based; details: human

T1 sequence (Q9HC29 whole entry, the tested form may be a part): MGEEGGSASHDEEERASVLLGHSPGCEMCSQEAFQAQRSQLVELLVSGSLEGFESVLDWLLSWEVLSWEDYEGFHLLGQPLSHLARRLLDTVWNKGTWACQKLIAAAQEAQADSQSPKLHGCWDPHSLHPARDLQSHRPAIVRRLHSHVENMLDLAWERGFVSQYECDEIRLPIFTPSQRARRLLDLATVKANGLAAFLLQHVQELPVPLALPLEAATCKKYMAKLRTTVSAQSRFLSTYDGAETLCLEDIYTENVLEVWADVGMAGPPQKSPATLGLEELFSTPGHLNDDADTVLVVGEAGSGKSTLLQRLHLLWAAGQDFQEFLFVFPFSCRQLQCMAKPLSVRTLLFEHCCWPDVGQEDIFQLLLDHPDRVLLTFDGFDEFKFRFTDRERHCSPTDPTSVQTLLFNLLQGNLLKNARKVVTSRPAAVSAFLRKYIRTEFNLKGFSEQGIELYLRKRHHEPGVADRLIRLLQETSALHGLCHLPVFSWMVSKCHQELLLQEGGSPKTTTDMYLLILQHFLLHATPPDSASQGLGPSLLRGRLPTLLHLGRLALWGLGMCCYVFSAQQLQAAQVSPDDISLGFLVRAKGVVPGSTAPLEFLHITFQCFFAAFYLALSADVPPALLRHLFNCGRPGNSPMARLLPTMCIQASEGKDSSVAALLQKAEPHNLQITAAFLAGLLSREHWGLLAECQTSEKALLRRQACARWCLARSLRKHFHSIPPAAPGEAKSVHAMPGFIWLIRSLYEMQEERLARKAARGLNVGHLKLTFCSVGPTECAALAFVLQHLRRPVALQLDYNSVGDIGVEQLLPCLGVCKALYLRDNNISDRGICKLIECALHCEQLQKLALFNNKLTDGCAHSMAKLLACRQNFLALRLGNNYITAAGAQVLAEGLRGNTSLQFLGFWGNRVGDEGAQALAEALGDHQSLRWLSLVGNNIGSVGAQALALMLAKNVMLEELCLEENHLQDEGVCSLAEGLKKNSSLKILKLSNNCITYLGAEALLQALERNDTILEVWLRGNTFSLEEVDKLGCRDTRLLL

Structure (SMILES)	Activity [1]	viability at 18 h, 20 µM [2] [%]	Activity [3]	Activity [4]	pEC50 [4]	fold change (FC) [5]	Activity [6]	Retention_time [7] [min]	Stability [8]	Drug uptake [9] [µM]
COC(=O)c1ccc(C(=O)OC)c(NC(=O)[C@@H](NC(=O)CNC(=O)/C=C/c2ccc(O)c(OC)c2)C(C)C)c1	Active	> 80	inactive	–	–	–	–	–	–	–
CCOC(=O)CC[C@@H](NC(=O)[C@H](Cc1ccccc1)NC(=O)CNC(=O)/C=C/c1ccc(O)c(OC)c1)C(=O)OCC	Active	> 80	inactive	Dose-dependent effect	6.92	5.7	inactive	–	–	–
COc1cc(/C=C/C(=O)NCC(=O)N[C@H](C(=O)N[C@H](CCC(=O)O)C(=O)O)C(C)C)ccc1O	Active	> 80	inactive	–	5.16	2.7	inactive	2.88	Stable	0.4
CCOC(=O)CC[C@@H](NC(=O)[C@@H](NC(=O)CNC(=O)c1cc2ccc(-c3ccccc3)cc2[nH]1)C(C)C)C(=O)OCC	Active	> 80	inactive	–	–	3.9	inactive	–	–	–
CCOC(=O)CC[C@@H](NC(=O)[C@H](Cc1ccccc1)NC(=O)CNC(=O)c1cc2ccc(-c3ccccc3)cc2[nH]1)C(=O)OCC	Active	> 80	inactive	Dose-dependent effect	6.11	4.8	inactive	–	–	–
CCOC(=O)CC[C@@H](NC(=O)[C@H](Cc1ccccc1)NC(=O)CNC(=O)[C@@H]1C[C@H]1c1ccccc1)C(=O)OCC	Active	> 80	inactive	Dose-dependent effect	6.33	5.3	inactive	–	–	–
CCOC(=O)CC[C@@H](NC(=O)[C@@H](NC(=O)CNC(=O)[C@@H]1C[C@H]1c1ccccc1)C(C)C)C(=O)OCC	Active	> 80	inactive	–	–	4.4	inactive	–	–	–
CCOC(=O)CC[C@@H](NC(=O)[C@@H](NC(=O)CNC(=O)C1CC1c1ccc(F)c(F)c1)C(C)C)C(=O)OCC (some centres undefined)	Active	> 80	inactive	Dose-dependent effect	6.61	5.8	inactive	–	–	–
CCOC(=O)CC[C@@H](NC(=O)[C@H](C)NC(=O)CNC(=O)/C=C/c1ccc(O)c(OC)c1)C(=O)OCC	Active	> 80	inactive	–	5.55	4.5	inactive	–	–	–
COC(=O)c1cc(NC(=O)[C@@H](NC(=O)CNC(=O)/C=C/c2ccc(O)c(OC)c2)C(C)C)cc(C(=O)OC)c1	Active	> 80	inactive	–	–	–	–	–	–	–
